# Test results published in PubChem BioAssay AID248 (DTP/NCI, 2004).
# Values joined by “and” are separate entries in the source; they are usually repeats but may differ in a detail not shown here. Equal entries are not always repeated. Inconclusive results and toxic doses are left out.
# Tested on: L1210 leukemia ip in BDF1 mice, survival T/C
# Test: NCI In Vivo Anticancer Drug Screen. Data for tumor model L1210 Leukemia (intraperitoneal) in B6D2F1 (BDF1) mice
# Details: endpoint: mean survival time, higher = longer survival
# Summary of the method: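 Ratio derived from survival: compound-dosed mice over vehicle-dosed mice, all bearing a transplantable tumor.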
# [1] = dose: 75.0 mg/kg/injection, schedule: Q01DX001 (ip), vehicle: saline
# [2] = dose: 150.0 mg/kg/injection, schedule: Q01DX001 (ip), vehicle: saline
# [3] = dose: 100.0 mg/kg/injection, schedule: Q01DX001 (ip), vehicle: saline
# [4] = dose: 200.0 mg/kg/injection, schedule: Q01DX001 (ip), vehicle: saline
# [5] = dose: 400.0 mg/kg/injection, schedule: Q01DX001 (ip), vehicle: saline
# [6] = dose: 100.0 mg/kg/injection, schedule: Q04DX002 (ip), vehicle: Klucel (hydroxypropylcellulose) (HPC)
# [7] = dose: 200.0 mg/kg/injection, schedule: Q04DX002 (ip), vehicle: Klucel (hydroxypropylcellulose) (HPC)
# [8] = dose: 400.0 mg/kg/injection, schedule: Q04DX002 (ip), vehicle: Klucel (hydroxypropylcellulose) (HPC)
# [9] = dose: 100.0 mg/kg/injection, schedule: Q04DX003 (ip), vehicle: Klucel (hydroxypropylcellulose) (HPC)
# [10] = dose: 200.0 mg/kg/injection, schedule: Q04DX003 (ip), vehicle: Klucel (hydroxypropylcellulose) (HPC)
# [11] = dose: 400.0 mg/kg/injection, schedule: Q04DX003 (ip), vehicle: Klucel (hydroxypropylcellulose) (HPC)
# [12] = dose: 100.0 mg/kg/injection, schedule: Q01DX009 (ip), vehicle: Klucel (hydroxypropylcellulose) (HPC)
# [13] = dose: 200.0 mg/kg/injection, schedule: Q01DX009 (ip), vehicle: Klucel (hydroxypropylcellulose) (HPC)
# [14] = dose: 400.0 mg/kg/injection, schedule: Q01DX009 (ip), vehicle: Klucel (hydroxypropylcellulose) (HPC)
# [15] = dose: 100.0 mg/kg/injection, schedule: Q01DX009 (ip), vehicle: saline with Tween-80
# [16] = dose: 200.0 mg/kg/injection, schedule: Q01DX009 (ip), vehicle: saline with Tween-80
# [17] = dose: 50.0 mg/kg/injection, schedule: Q01DX009 (ip), vehicle: saline with Tween-80
# [18] = dose: 100.0 mg/kg/injection, schedule: Q04DX003 (ip), vehicle: saline with Tween-80
# [19] = dose: 200.0 mg/kg/injection, schedule: Q04DX003 (ip), vehicle: saline with Tween-80
structure (smiles),measurement,setting,value
NNC(=O)c1ccc(-c2ccc[nH]2)[nH]1,T/C,[1],108 % of control
same,T/C,[2],92 % of control
O=C1C2CCN(CC2)C1Cc1ccccc1 (stereo unspecified),T/C,"dose: 100.0 mg/kg/injection, schedule: Q04DX002 (ip), vehicle: saline",111 % of control
same,T/C,"dose: 200.0 mg/kg/injection, schedule: Q04DX002 (ip), vehicle: saline",107 % of control
Cc1cc(Cl)n[nH]c1=O,T/C,[3],105 % of control
same,T/C,[4],104 % of control
same,T/C,[5],102 % of control
NS(=O)(=O)c1ccccc1C(=O)O,T/C,"dose: 100.0 mg/kg/injection, schedule: Q01DX009 (ip), vehicle: saline",96 % of control
same,T/C,"dose: 200.0 mg/kg/injection, schedule: Q01DX009 (ip), vehicle: saline",91 % of control
CCN=C(c1ccc(NC(=O)c2ccc(C(=O)Nc3ccc(C(=NCC)N(CC)CC)cc3)cc2)cc1)N(CC)CC,T/C,"dose: 0.94 mg/kg/injection, schedule: Q01DX Z (ip), vehicle: carboxymethylcellulose (CMC)",94 % of control
same,T/C,"dose: 1.87 mg/kg/injection, schedule: Q01DX Z (ip), vehicle: carboxymethylcellulose (CMC)",95 % of control
CC(C)c1ccccc1OC(=O)NC1CCCCC1,T/C,[6],96 % of control
same,T/C,[7],110 % of control
same,T/C,[8],104 % of control
[C-]#[N+]CCCCCC,T/C,"dose: 3.12 mg/kg/injection, schedule: Q04DX003 (sc), vehicle: olive oil, sesame oil, peanut oil",101 % of control
same,T/C,"dose: 4.21 mg/kg/injection, schedule: Q01DX009 (ip), vehicle: olive oil, sesame oil, peanut oil",92 % of control
same,T/C,"dose: 6.25 mg/kg/injection, schedule: Q04DX003 (sc), vehicle: olive oil, sesame oil, peanut oil",93 % of control
same,T/C,"dose: 8.43 mg/kg/injection, schedule: Q01DX009 (sc), vehicle: olive oil, sesame oil, peanut oil",112 % of control
same,T/C,"dose: 12.5 mg/kg/injection, schedule: Q04DX003 (sc), vehicle: olive oil, sesame oil, peanut oil",88 % of control
same,T/C,"dose: 16.87 mg/kg/injection, schedule: Q01DX009 (sc), vehicle: olive oil, sesame oil, peanut oil",112 % of control
same,T/C,"dose: 18.0 mg/kg/injection, schedule: Q04DX003 (sc), vehicle: other",104 % of control
same,T/C,"dose: 28.0 mg/kg/injection, schedule: Q04DX003 (sc), vehicle: other",101 % of control
same,T/C,"dose: 40.0 mg/kg/injection, schedule: Q04DX003 (sc), vehicle: other",108 % of control
same,T/C,"dose: 60.0 mg/kg/injection, schedule: Q04DX003 (sc), vehicle: olive oil, sesame oil, peanut oil",111 % of control
same,T/C,"dose: 90.0 mg/kg/injection, schedule: Q04DX003 (sc), vehicle: olive oil, sesame oil, peanut oil",100 % of control
same,T/C,"dose: 135.0 mg/kg/injection, schedule: Q04DX003 (sc), vehicle: olive oil, sesame oil, peanut oil",109 % of control
CCCCCCCCCCCCCCCCCCSCCO,T/C,[9],100 % of control and 90 % of control
same,T/C,[10],102 % of control
same,T/C,[11],92 % of control and 100 % of control
CCC[CH2][Sn](=[O])[CH2]CCC,T/C,"dose: 1.5 mg/kg/injection, schedule: Q01DX001 (ip), vehicle: saline with Tween-80",90 % of control
same,T/C,"dose: 3.0 mg/kg/injection, schedule: Q01DX001 (ip), vehicle: saline with Tween-80",100 % of control
same,T/C,"dose: 6.0 mg/kg/injection, schedule: Q01DX001 (ip), vehicle: saline with Tween-80",107 % of control
CSc1ccc(NC(=O)C(Cl)Cl)cc1,T/C,[12],95 % of control
same,T/C,[6],97 % of control
same,T/C,[13],105 % of control
same,T/C,[14],101 % of control
same,T/C,[8],93 % of control
Cc1cc(C)c(S(=O)(=O)Nc2cc(C)ccc2C)c(C)c1,T/C,[12],100 % of control
same,T/C,[13],96 % of control
same,T/C,[14],100 % of control
Cc1cccc(/C(=C/c2ccc([N+](=O)[O-])cc2)C(=O)Nc2ccc(S(=O)(=O)F)cc2)c1,T/C,[15],96 % of control
same,T/C,[16],97 % of control
same,T/C,"dose: 400.0 mg/kg/injection, schedule: Q01DX009 (ip), vehicle: saline with Tween-80",96 % of control
CC(=O)Nc1ccc(S(=O)(=O)Cl)cc1Cl,T/C,[1],96 % of control
same,T/C,[2],98 % of control
same,T/C,"dose: 300.0 mg/kg/injection, schedule: Q01DX001 (ip), vehicle: saline",99 % of control
CN(C)C(=O)N/N=C/c1ccc(Cl)cc1,T/C,[15],95 % of control
same,T/C,[16],92 % of control
O=C(O)c1c2ccc(=O)cc-2oc2cc(O)ccc12,T/C,[9],92 % of control
same,T/C,[10],92 % of control
same,T/C,[11],89 % of control
Cc1ccc(C(=O)C2CC2)cc1C,T/C,[17],100 % of control
same,T/C,[15],91 % of control
same,T/C,[18],98 % of control
same,T/C,[16],91 % of control
same,T/C,"dose: 202.0 mg/kg/injection, schedule: Q04DX003 (ip), vehicle: saline with Tween-80",107 % of control
O=c1[nH]c2ccccc2c(=O)o1,T/C,[3],96 % of control
same,T/C,[4],89 % of control
same,T/C,[5],89 % of control
CC(C)=CCC/C(C)=C\COc1ccc(C(C)(C)C)cc1,T/C,[6],96 % of control
same,T/C,[7],100 % of control
same,T/C,[8],89 % of control
CSc1ccc(OC(=O)Nc2ccccc2F)cc1,T/C,[17],108 % of control
same,T/C,[15],103 % of control
Cc1ccc([N+](=O)[O-])o1,T/C,[18],91 % of control
same,T/C,[19],87 % of control
CCCCCCCCCCCCCC(CCCCCC)c1ccccc1 (stereo unspecified),T/C,"dose: 100.0 mg/kg/injection, schedule: Q01DX001 (ip), vehicle: saline + alcohol",119 % of control
same,T/C,"dose: 200.0 mg/kg/injection, schedule: Q01DX001 (ip), vehicle: saline + alcohol",106 % of control
same,T/C,"dose: 400.0 mg/kg/injection, schedule: Q01DX001 (ip), vehicle: saline + alcohol",95 % of control
NNC(=O)CNc1ccc(F)cc1Br,T/C,[6],101 % of control
same,T/C,[7],101 % of control
O=C(NCCCNC(=O)Nc1ccc(C2=NCCN2)cc1)Nc1ccc(C2=NCCN2)cc1,T/C,"dose: 0.5 mg/kg/injection, schedule: Q01DX Z (ip), vehicle: carboxymethylcellulose (CMC)",105 % of control
same,T/C,"dose: 1.0 mg/kg/injection, schedule: Q01DX Z (ip), vehicle: carboxymethylcellulose (CMC)",105 % of control
same,T/C,"dose: 8.0 mg/kg/injection, schedule: Q01DX Z (ip), vehicle: water",122 % of control
same,T/C,"dose: 12.0 mg/kg/injection, schedule: Q01DX Z (ip), vehicle: carboxymethylcellulose (CMC)",225 % of control
same,T/C,"dose: 16.0 mg/kg/injection, schedule: Q01DX Z (ip), vehicle: carboxymethylcellulose (CMC)",223 % of control
same,T/C,"dose: 16.0 mg/kg/injection, schedule: Q01DX Z (ip), vehicle: water",210 % of control
same,T/C,"dose: 24.0 mg/kg/injection, schedule: Q01DX Z (ip), vehicle: carboxymethylcellulose (CMC)",223 % of control
same,T/C,"dose: 31.0 mg/kg/injection, schedule: Q01DX Z (ip), vehicle: carboxymethylcellulose (CMC)",177 % of control
CCC(C(N)=O)N1C(=O)C2C3CCC(C3)C2C1=O (stereo unspecified),T/C,[18],90 % of control
same,T/C,"dose: 100.0 mg/kg/injection, schedule: Q04DX003 (ip), vehicle: saline",107 % of control
same,T/C,[19],100 % of control
same,T/C,"dose: 200.0 mg/kg/injection, schedule: Q04DX003 (ip), vehicle: saline",107 % of control
same,T/C,"dose: 400.0 mg/kg/injection, schedule: Q04DX003 (ip), vehicle: saline with Tween-80",100 % of control
same,T/C,"dose: 400.0 mg/kg/injection, schedule: Q04DX003 (ip), vehicle: saline",98 % of control
CCN1CCC2=C(CCCC2O)C1 (stereo unspecified),T/C,"dose: 75.0 mg/kg/injection, schedule: Q01DX001 (ip), vehicle: steriod suspending solution",104 % of control
same,T/C,"dose: 150.0 mg/kg/injection, schedule: Q01DX001 (ip), vehicle: steriod suspending solution",98 % of control
COc1ccc(/C(C)=N\OC(=O)N(C)C)c(OC)c1,T/C,"dose: 100.0 mg/kg/injection, schedule: Q01DX001 (ip), vehicle: carboxymethylcellulose (CMC)",100 % of control
same,T/C,"dose: 200.0 mg/kg/injection, schedule: Q01DX001 (ip), vehicle: carboxymethylcellulose (CMC)",100 % of control
same,T/C,"dose: 400.0 mg/kg/injection, schedule: Q01DX001 (ip), vehicle: carboxymethylcellulose (CMC)",103 % of control
Cc1ccc([N+](=O)[O-])cc1NC(=O)Nc1ccc(C(=O)O)cc1,T/C,[12],90 % of control
same,T/C,[13],98 % of control
same,T/C,[14],104 % of control
CCCCCCCCCCCCCCCCCCSc1ccccc1,T/C,[9],93 % of control
same,T/C,[10],93 % of control
same,T/C,[11],94 % of control
